From patent US6441023B1 (American Home Products Corporation, priority 1997, dated 2002) come the findings set out here.

As a reminder, the melting point is the temperature of the solid-liquid transition.

Structures are written as SMILES. Where a name gives a salt, the structure may show the parent alone.

T1 sequence (P78536 215-824): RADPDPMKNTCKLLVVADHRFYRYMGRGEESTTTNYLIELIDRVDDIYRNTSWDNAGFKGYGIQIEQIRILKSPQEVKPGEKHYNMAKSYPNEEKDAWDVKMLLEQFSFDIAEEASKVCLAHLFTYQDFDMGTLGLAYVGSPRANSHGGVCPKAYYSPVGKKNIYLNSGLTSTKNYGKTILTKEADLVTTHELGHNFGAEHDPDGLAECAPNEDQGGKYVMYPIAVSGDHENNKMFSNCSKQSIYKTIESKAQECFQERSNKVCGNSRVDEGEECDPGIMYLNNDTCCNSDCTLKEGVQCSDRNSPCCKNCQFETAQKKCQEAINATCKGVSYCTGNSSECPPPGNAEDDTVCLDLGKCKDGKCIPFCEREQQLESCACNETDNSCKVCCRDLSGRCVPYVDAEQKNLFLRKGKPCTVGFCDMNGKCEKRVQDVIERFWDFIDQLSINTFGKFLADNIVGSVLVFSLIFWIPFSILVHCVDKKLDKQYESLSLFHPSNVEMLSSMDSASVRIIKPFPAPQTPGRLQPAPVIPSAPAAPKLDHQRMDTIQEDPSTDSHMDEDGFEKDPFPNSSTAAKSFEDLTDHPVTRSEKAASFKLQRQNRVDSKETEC

Tested on in the first data set: not given
Test: not given
Conditions: not given
Compound `CN1CCC(C(=O)NO)(S(=O)(=O)c2ccc(Oc3ccc(Cl)cc3)cc2)CC1` (as salt: HCl) [Example 249, 4-[4-(4-chloro-phenoxy)-benzenesulfonyl]1-methyl-piperidine-4-carboxylic acid hydroxyamide] gave a melting point of 52 °C. In turn, `CCN1CCC(C(=O)NO)(S(=O)(=O)c2ccc(Oc3ccc(Cl)cc3)cc2)CC1` (as salt: HCl) [Example 250, 4-[4-(4-chloro-phenoxy)-benzenesulfonyl]1-ethyl-piperidine-4-carboxylic acid hydroxyamide] gave a melting point of 158 °C. The same measure, in the same setting: to `COc1ccc(S(=O)(=O)C2(C(=O)NO)CCN(Cc3ccccc3)CC2)cc1` [Example 83, 1-Benzyl-4-(4-methoxy-benzenesulfonyl)-piperidine-4carboxylic Acid hydroxyamide] belongs 90 to 95 °C; to `CCCC(Cc1ccc(OCCN2CCOCC2)cc1)(C(=O)NO)S(=O)(=O)c1ccc(OC)cc1` (centres unmarked) [Example 35, 2-(4-Methoxy-benzenesulfonyl)-2-[4-(2-morpholin-4-yl-ethoxy)-benzyl]-pentanoic acid hydroxyamide], 101 °C. Compound `COc1ccc(S(=O)(=O)C2(C(=O)NO)CCN(Cc3ccc(-c4ccccn4)cc3)CC2)cc1` (as salt: HCl) [Example 262, 4-(4-methoxy-benzenesulfonyl)-1-(4-pyridin-2-yl-benzyl)-piperidine-4-carboxylic acid hydroxyamide] came in with a melting point of 214 °C. Same read-out and setting: in the case of `CCCCOc1ccc(S(=O)(=O)C2(C(=O)NO)CCN(Cc3ccc(C)cc3)CC2)cc1` (as salt: HCl) [Example 267, 4-(4-Butoxy-benzenesulfonyl)-1-(4-methylbenzyl)-piperidine-4-carboxylic acid hydroxamide] it was 137 °C; in that of `CN1CCC(C(=O)NO)(S(=O)(=O)c2ccc(OCc3ccc(Cl)cc3)cc2)CC1` (as salt: HCl) [Example 264, [4-(4-Chloro-benzyloxy)benzenesulfonyl]-1-methylpiperidine-4-carboxylic acid hydroxamide], 117.8 °C. On the same count and under the same terms, to `CCCCOc1ccc(S(=O)(=O)C2(C(=O)NO)CCN(Cc3ccncc3)CC2)cc1` (as salt: HCl) [Example 269, 4-(4-Butoxy-benzenesulfonyl)-1-pyridin-4-ylmethyl-piperidine-4-carboxylic acid hydroxamide] belongs 118 °C; to `CCCCOc1ccc(S(=O)(=O)C2(C(=O)NO)CCN(Cc3ccc(OCCN4CCCCC4)cc3)CC2)cc1` (as salt: HCl) [Example 242, 4-(4-Butoxy-benzenesulfonyl)-1-[4-(2-piperidin-1-yl-ethoxy)-benzyl]-piperidine-4-carboxylic acid hydroxyamide], 155 °C.

Consider `CCCCOc1ccc(S(=O)(=O)C2(C(=O)NO)CCN(Cc3cccc(OCCN4CCOCC4)c3)CC2)cc1` (as salt: HCl) [Example 243, 4(4-Butoxy-benzenesulfonyl)-1-[3-(2-morpholinyl-1-ylthoxy)-benzyl]-piperidine-4-carboxylic acid hydroxyamide], for which the melting point amounted to 123 °C.

The next data set addresses T1, TACE (Homo sapiens, UniProt P78536).
T1 construct: purchased Immunex
The data set is described as follows: Procedure for measuring TACE inhibition. The class given is biochemical. To be noted: read-out: TACE IC 50. The protocol:
Using 96-well black microtiter plates, each well receives a solution composed of 10 μL TACE (Inmunex, final concentration 1 μg/mL), 70 μL Tris buffer, pH 7.4 containing 10% glycerol (final concentration 10 mM), and 10 μL of test compound solution in DMSO ([…], DMSO concentration <1%) and incubated for 10 minutes at room temperature. The reaction is initiated by addition of a fluorescent peptidyl substrate (final concentration 100 μM to each well and then shaking on a shaker for 5 sec.
The reaction is read (excitation 340 nm, emission 420 nm) for 10 min. and the increase in fluorescence over time is plotted as a linear line. The slope of the line is calculated and represents the reaction rate.
The mean (xtsem) of the control rate is calculated and compared for statistical significance (p<0.05) with drug-treated rates using Dunnett's multiple comparison test.
For the compound `CCCC(Cc1ccc(OCCN2CCOCC2)cc1)(C(=O)NO)S(=O)(=O)c1ccc(OC)cc1` (centres unmarked) [Example 35, 2-(4-Methoxy-benzenesulfonyl)-2-[4-(2-morpholin-4-yl-ethoxy)-benzyl]-pentanoic acid hydroxyamide], the IC50 was found to be 44.9 nM.
